Entries after “also recorded” stand apart in the source; their conditions may differ.
What was measured:
[1] = test system: Anopheles gambiae mosquitoes (Kisumu [KIS], G3 and Asembo [AB] strains); assay: WHO cone bioassay of impregnated netting, all strains; assay type: in vivo
Protocol: (§1) Insectary-reared and sugar-fed Anopheles gambiae mosquitoes (Kisumu [KIS], G3 and Asembo [AB] strains), 3-4 days old, were tested for susceptibility (or resistance) to permethrin-impregnated nets, using the WHO adult mosquito susceptibility test kit. About 20 mosquitoes were used in each assay. Cohort mosquitoes were then used to bioassay the pyrethroid-impregnated netting samples using the WHO cone bioassay with a 3 minute exposure time. During an assay, the cone was held on its side, which placed the net sample in a perpendicular or vertical position with respect to the floor, as is the case when testing an actual hanging net. In each assay 7-12 mosquitoes were used with 3-4 such assays run for each experiment. After exposure for the prescribed time, mortality was determined after the mosquitoes were held overnight (24 hours) in clean cartons with sugar water for nourishment. Final mortality was corrected for control mortality. Knock-down was defined as the number of mosquitoes alive or dead, present on the floor of the carton 30 minutes after exposure. Knock-down is considered to be a more accurate measurement of insecticide efficacy because in the wild any mosquito that falls to the ground serves almost immediately as food for other insects (e.g., ants). Temperature and humidity conducive to the survival of the mosquitoes were maintained.

[2] = Wash/rinse cycles of netting samples, permethrin removed per cycle; assay type: physicochemical
Protocol: Netting samples were repeatedly washed and each wash and rinse solution was analyzed to determine the concentration of impregnated insecticide removed during each wash cycle. After several wash/rinse cycles, when the insecticidal efficacy had become depleted, the residual insecticide on the net was also determined.
A volume of 100 ml of a standardized detergent (2% aqueous sodium dodecyl sulfate [SDS]) was added to a 4 ounce wide mouth screw-cap bottle. An impregnated net sample (bioassayed beforehand) was folded twice and placed into the SDS solution, and the cap was applied and the bottle was shaken for 5 minutes on a mechanical shaker. After removing the cap, the net sample was removed, wrung out and placed in a 4 ounce bottle containing 100 ml of de-ionized water and shaken for five minutes, after which, the sample was removed, wrung out and left to dry overnight. The sample was rebioassayed the next day and at later times. To each wash solution was added a volume of 100 μl of the appropriate internal standard (IS) solution in acetone, and the contents were vigorously shaken by hand. To the rinse solution was added a 0.5 g quantity of dry SDS, and the contents were shaken to dissolve the SDS. Then a 100 μl volume of IS was added, and the contents were vigorously shaken. Two ml of each wash and rinse solution was then transferred to a 4 ml screw-cap vial, 3 ml of ethyl acetate were added and the contents were shaken. After centrifugation to clarify the ethyl acetate layer, about 1 ml of the ethyl acetate layer of each extract was transferred to an autosampler vial and injected onto the GC system described above to determine insecticide content.
For washing experiments involving permethrin, the wash and rinse solutions were injected directly onto a reversed-phase, high-performance liquid chromatographic system with ultraviolet (UV) detection, to determine the permethrin content of the solutions.

[3] = test system: Anopheles gambiae mosquitoes (Kisumu [KIS] strain); assay: WHO cone bioassay of impregnated netting, knock-down and mortality, KIS strain; assay type: in vivo; details: nets 500 mg/m^2 permethrin alone; after five wash/rinse cycles
Protocol: as §1

[4] = test system: Anopheles gambiae mosquitoes (G3 strain); assay: WHO cone bioassay of impregnated netting, knock-down and mortality, G3 strain; assay type: in vivo; details: nets 500 mg/m^2 permethrin alone; two wash/rinse cycles
Protocol: as §1

[5] = test system: Anopheles gambiae mosquitoes (Asembo [AB] strain); assay: WHO cone bioassay of impregnated netting, knock-down and mortality, AB strain; assay type: in vivo; details: nets 500 mg/m^2 permethrin alone; after one wash/rinse cycle
Protocol: as §1

CC1(C)C(C=C(Cl)Cl)C1C(=O)OCc1cccc(Oc2ccccc2)c1 (stereo not drawn) [Permethrin Alone, permethrin]
effectiveness against all strains ([1]; nets 500 mg/m^2 permethrin alone, six wash/rinse cycles): completely disappeared
effectiveness against all strains ([1]; nets 1000 mg/m^2 permethrin alone, after four washings): lost most of their effectiveness
insecticide lost after the first washing ([2]; nets 500 or 1000 mg/m^2 permethrin alone): 63-90%
Amt (%) washed off during a W/R cycle ([2]; permethrin alone 500 mg/m^2, W/R = 1): 63.0%
Amt (%) washed off during a W/R cycle ([2]; permethrin alone 500 mg/m^2, W/R = 2): 4.3%
Amt (%) washed off during a W/R cycle ([2]; permethrin alone 500 mg/m^2, W/R = 3): 4.7%
Amt (%) washed off during a W/R cycle ([2]; permethrin alone 500 mg/m^2, W/R = 4): 17.5%
Amt (%) washed off during a W/R cycle ([2]; permethrin alone 500 mg/m^2, W/R = 5): 7.6%
Amt (%) washed off during a W/R cycle ([2]; permethrin alone 500 mg/m^2, W/R = 6): 2.8%
Amt (%) washed off during a W/R cycle ([2]; permethrin alone 1000 mg/m^2, W/R = 1): 90.7%
Amt (%) washed off during a W/R cycle ([2]; permethrin alone 1000 mg/m^2, W/R = 2): 2.4%
Amt (%) washed off during a W/R cycle ([2]; permethrin alone 1000 mg/m^2, W/R = 3): 0.9%
Amt (%) washed off during a W/R cycle ([2]; permethrin alone 1000 mg/m^2, W/R = 4): 0.9%
knock-down [3]: less than 50%
mortality [3]: approximately 20%
knock-down [4]: approximately 20%
mortality [4]: ~10%
effectiveness (knock-down and mortality) [5]: completely ineffective; also recorded: all effectiveness with this strain was lost
